Reference: patent US20090156480A1, “Biodegradable nanoparticle having t-cell recognizable epitope peptide immobilized thereon or encapsulated therein” (priority 2005, published 2009)

Key:
Format in all cases: in vivo, BALB/c mice
[1] = test system: draining lymph node cells; test: Immunization potential: lymph node cell proliferation ([3H]thymidine intake) after subcutaneous footpad injection; conditions: s.c. footpads, nanoparticles corresponding to 20 μg peptide, FIG. 1; for cell proliferation response (thymidine intake) to the injected T cell recognizable epitope peptide: day 11 lymph node cells stimulated with P1 or P2 20 μg/ml; for cell proliferation response (thymidine intake) to SBP: day 11 lymph node cells stimulated with SBP 10 μg/ml
Method: (§1) Subcutaneously injected into the footpads of BALB/c mice (6-week-old male) was 100 μl (50 μl for each footpad) of a suspension of biodegradable nanoparticles having immobilized thereon Cryj1 or Cryj2 T cell recognizable epitope peptide (P1 or P2) (the amount of nanoparticles corresponding to 20 μg of the peptide) or nanoparticles having no peptide immobilized thereon. On day 11, a draining lymph node was removed to collect lymph node cells, which were then suspended in a mixture of RPM 11640 medium and 10% fetal calf serum (FCS). Such cells from two mice were combined together for use in each group. The cells were placed onto a 96-well incubation plate in an amount of 5×10^5 in each well. Further placed into each well as an antigen stimulus was P1 or P2 to a final concentration of 20 μg/ml or a cedar pollen roughly purified antigen (Sugi Basic Protein, SBP, Asahi Food and Health Care Co., Ltd.) in an amount of 10 μg/ml. Half of the mixture to be incubated was replaced by a fresh mixture to be incubated and containing [^3H] tritium-thymidine (0.5 μCi) 48 hours after the start of incubation. The cells were then collected onto a glass filter 16 hours thereafter by a cell harvester, and the [^3H] tritium intake (thymidine intake) was measured by a liquid scintillation counter for the evaluation of cell proliferation. The SBP mentioned above is an allergen containing both Cryj1 and Cryj2.

interferon-γ = test: Ocular (conjunctival) administration: interferon-γ production by sandwich ELISA; conditions: 5 μg peptide eight times, supernatant 64 hours, SBP 10 μg/ml, versus ocularly untreated mice, FIG. 3
Method: (§2) Mucosal administration of antigens is thought promising in immunotherapy, and the conjunctiva is considered to be one of the routes of administration (J. Immunol. 2000, 164: 4543-4550). Biodegradable nanoparticles having immobilized thereon T cell recognizable epitope peptide were ocularly-instilled to investigate the influence on the response to the subsequent antigen sensitization. A saline solution of Cryj2 T cell recognizable epitope peptide (P2) (5 μg of the peptide) or a suspension of P2 immobilized nanoparticles (corresponding to 5 μg of the peptide) administered dropwise, in an amount of 10 μl, to the conjunctivas of the eyes of BALB/c mice (7-week-old male) eight times (on days 1-4 and days 6-9). On day 16, a suspension of 5 μg of cedar pollen roughly purified antigen SBP in Freund's incomplete adjuvant was injected for antigen sensitization into the right footpads to give rise to an immune response. […] The proliferation of cells was measured by the same method as described in Example 2. For the measurement of cytokine production, the supernatant was collected 64 hours after the start of incubation to quantitatively determine interleukin-5 and interferon-γ by sandwich ELISA using Bio-Plex cytokine assay system (product of Bio-Rad).

interleukin-5 = test: Ocular (conjunctival) administration: interleukin-5 production by sandwich ELISA; conditions: 5 μg peptide eight times, supernatant 64 hours, SBP 10 μg/ml, versus ocularly untreated mice, FIG. 3
Method: as §2

[2] = test system: draining lymph node cells; test: Ocular (conjunctival) administration, SBP sensitization: cell proliferation (thymidine intake) on SBP stimulation; conditions: 5 μg peptide eight times, SBP sensitization day 16, SBP 10 μg/ml, versus ocularly untreated mice, FIG. 3
Method: as §1, with “Further placed into each well as an antigen stimulus was P1 or P2 to a final concentration of 20 μg/ml or a cedar pollen roughly purified antigen (Sugi Basic Protein, SBP, Asahi Food and Health Care Co., Ltd.) in an amount of 10 μg/ml. Half of the mixture to be incubated was replaced by a fresh mixture to be incubated and containing [^3H] tritium-thymidine (0.5 μCi) 48 hours after the start of incubation.” left out, “The SBP mentioned above is an allergen containing both Cryj1 and Cryj2.” left out
Mucosal administration of antigens is thought promising in immunotherapy, and the conjunctiva is considered to be one of the routes of administration (J. Immunol. 2000, 164: 4543-4550). […] The proliferation of cells was measured by the same method as described in Example 2. […]

Row | Sequence | cell proliferation response (thymidine intake) to the injected T cell recognizable epitope peptide [1] | cell proliferation response (thymidine intake) to SBP [1] | production of interferon-γ (Th1 cytokine) (interferon-γ) | production of interleukin-5 (Th2 cytokine) (interleukin-5) | cell proliferation response (thymidine intake) to the stimulation with the antigen [2]
1 | KQVTIRIGCKTSSS [P1, in b77 the label stands for the P1-immobilized nanoparticles injected] | specific cell proliferation response was observed | observed was a response to the SBP |  |  | 
2 | RAEVSYVHVNGAKF [P2 alone] | specific cell proliferation response was observed | observed was a response to the SBP | lower | reduced to nearly the same extent | lower
